Literature values in paper PMC3387528 (Journal of the American Chemical Society, 2011).

Legend:
[1] = tested on: dsDNA; conditions: substrate dsDNA; no coreagents; pH 7.0, 37 °C; ref [22]
[2] = tested on: ApA (adenylyl(3′-5′)adenosine); conditions: substrate ApA; no coreagents; pH 7.2, 30 °C; ref [28]

Row | k2, expressed as kcat/KM [1] | Structure (SMILES) | k2, second-order rate constant [2]
1 | 108 ^b M^−1 min^−1 | [Eu+3] [Eu^3+] | –
2 | – | [Cl][Lu]([Cl])[Cl] [LuCl3] | 0.633 M⁻¹ s⁻¹
